Measured values taken from ChEMBL document CHEMBL5665443, “Enzyme Inhibitor Single Concentration assay results for EUbOPEN Chemogenomics Library” (2024).

What was measured:
[1] = target: Methyl-CpG-binding domain protein 4 (Homo sapiens) (UniProt O95243); settings: Hit No;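 further: MBD4 activity read as fluorescence at 594 nm from cleavage and release of a quenched duplex DNA oligonucleotide, with APE1 coupled to incise the strand and raise turnover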
Description: Inhibition of MBD4 by quantifying inhibition of MBD4-mediated cleavage and dissociation of quenched duplex DNA oligonucleotides, measured as fluorescence at 594 nm. To generate a functional strand incision and increase turn-over this assay is coupled to APE1.

[2] = target: T1, Endonuclease III-like protein 1 (Homo sapiens) (UniProt P78549); settings: Hit No;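 further: enzyme assay tracking NTHL1 cutting and release of a quenched double-stranded DNA oligo substrate, read as fluorescence at 594 nm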
T1 sequence (whole entry): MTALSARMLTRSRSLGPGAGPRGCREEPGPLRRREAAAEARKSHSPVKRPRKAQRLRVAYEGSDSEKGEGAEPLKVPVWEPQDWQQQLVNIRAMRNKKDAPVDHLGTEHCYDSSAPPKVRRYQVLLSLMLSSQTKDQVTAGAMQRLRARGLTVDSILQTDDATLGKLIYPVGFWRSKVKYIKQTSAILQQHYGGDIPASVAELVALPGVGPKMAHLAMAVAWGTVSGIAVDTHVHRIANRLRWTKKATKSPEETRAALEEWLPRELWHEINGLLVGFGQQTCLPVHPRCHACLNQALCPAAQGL
Description: Inhibition of NTHL1 by quantifying inhibition of NTHL1-mediated cleavage and dissociation of quenched duplex DNA oligonucleotides, measured as fluorescence at 594 nm.

[3] = target: T2, Single-strand selective monofunctional uracil DNA glycosylase (Homo sapiens) (UniProt Q53HV7); settings: Hit No;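 further: enzymatic SMUG1 assay coupled with APE1, reading fluorescence at 594 nm released when a quenched double-stranded DNA oligonucleotide substrate is cleaved and separated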
T2 sequence (whole entry): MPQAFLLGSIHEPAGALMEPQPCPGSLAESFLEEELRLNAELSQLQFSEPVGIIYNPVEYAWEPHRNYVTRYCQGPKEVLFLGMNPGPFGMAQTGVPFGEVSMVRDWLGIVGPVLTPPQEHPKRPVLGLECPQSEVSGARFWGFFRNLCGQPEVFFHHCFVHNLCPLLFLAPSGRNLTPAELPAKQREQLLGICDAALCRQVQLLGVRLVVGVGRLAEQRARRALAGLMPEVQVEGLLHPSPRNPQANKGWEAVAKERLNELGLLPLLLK
Description: Inhibition of SMUG1 by quantifying inhibition of SMUG1-mediated cleavage and dissociation of quenched duplex DNA oligonucleotides, measured as fluorescence at 594 nm. To generate a functional strand incision and increase turn-over this assay is coupled to APE1.

[4] = target: N-glycosylase/DNA lyase (Homo sapiens) (UniProt O15527); settings: Hit No;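 further: OGG1 cleavage of a quenched duplex DNA oligonucleotide, coupled to APE1 for strand incision, read as fluorescence at 594 nm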
Chain of N-glycosylase/DNA lyase (Homo sapiens) (O15527 whole entry): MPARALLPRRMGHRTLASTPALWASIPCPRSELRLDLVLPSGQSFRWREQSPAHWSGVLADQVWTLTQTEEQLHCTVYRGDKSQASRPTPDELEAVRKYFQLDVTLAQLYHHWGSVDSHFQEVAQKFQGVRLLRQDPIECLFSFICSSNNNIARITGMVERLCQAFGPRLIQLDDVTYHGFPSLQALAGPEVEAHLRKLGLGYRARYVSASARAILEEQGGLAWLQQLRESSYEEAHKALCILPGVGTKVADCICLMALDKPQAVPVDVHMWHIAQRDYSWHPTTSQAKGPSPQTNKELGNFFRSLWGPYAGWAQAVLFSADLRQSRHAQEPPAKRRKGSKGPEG
Description: Inhibition of OGG1 by quantifying inhibition of OGG1-mediated cleavage and dissociation of quenched duplex DNA oligonucleotides, measured as fluorescence at 594 nm. To generate a functional strand incision and increase turn-over this assay is coupled to APE1.

[5] = target: T3, Endonuclease 8-like 2 (Homo sapiens) (UniProt Q969S2); settings: Hit No;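 further: fluorescence at 594 nm reports NEIL2 cutting and release of a quenched double-stranded DNA oligo substrate, reduced signal read as inhibition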
T3 sequence (whole entry): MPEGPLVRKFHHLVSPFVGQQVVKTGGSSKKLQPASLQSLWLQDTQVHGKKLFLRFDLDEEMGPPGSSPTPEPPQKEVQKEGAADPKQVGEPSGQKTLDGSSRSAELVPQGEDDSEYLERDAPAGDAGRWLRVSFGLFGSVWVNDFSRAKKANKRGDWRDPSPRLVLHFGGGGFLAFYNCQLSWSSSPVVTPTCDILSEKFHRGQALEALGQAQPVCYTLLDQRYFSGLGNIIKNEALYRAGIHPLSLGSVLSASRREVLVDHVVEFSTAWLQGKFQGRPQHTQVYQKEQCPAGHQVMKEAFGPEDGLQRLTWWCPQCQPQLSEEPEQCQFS
Description: Inhibition of NEIL2 by quantifying inhibition of NEIL2-mediated cleavage and dissociation of quenched duplex DNA oligonucleotides, measured as fluorescence at 594 nm.

[6] = target: G/T mismatch-specific thymine DNA glycosylase (Homo sapiens) (UniProt Q13569); settings: Hit No;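 further: human TDG cleavage of quenched duplex DNA oligonucleotides coupled to APE1, strand release read as fluorescence at 594 nm, inhibition of TDG activity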
Chain of G/T mismatch-specific thymine DNA glycosylase (Homo sapiens) (Q13569 whole entry): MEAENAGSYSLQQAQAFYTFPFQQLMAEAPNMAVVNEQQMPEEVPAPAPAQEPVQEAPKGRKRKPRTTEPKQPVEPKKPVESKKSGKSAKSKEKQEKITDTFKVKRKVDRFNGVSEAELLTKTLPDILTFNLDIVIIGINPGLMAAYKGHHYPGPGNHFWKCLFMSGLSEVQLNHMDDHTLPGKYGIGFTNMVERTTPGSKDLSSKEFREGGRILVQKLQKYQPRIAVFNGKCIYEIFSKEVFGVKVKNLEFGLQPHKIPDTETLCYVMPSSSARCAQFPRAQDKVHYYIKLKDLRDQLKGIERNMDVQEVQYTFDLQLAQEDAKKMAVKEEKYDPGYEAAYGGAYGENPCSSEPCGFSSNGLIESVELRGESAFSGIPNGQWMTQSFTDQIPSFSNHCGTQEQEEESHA
Description: Inhibition of TDG by quantifying inhibition of TDG-mediated cleavage and dissociation of quenched duplex DNA oligonucleotides, measured as fluorescence at 594 nm. To generate a functional strand incision and increase turn-over this assay is coupled to APE1.

[7] = target: Uracil-DNA glycosylase (Homo sapiens) (UniProt P13051); settings: Hit No;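 further: UNG excision on a quenched double-stranded DNA oligo probe, with APE1 added for strand incision and turnover, read as fluorescence at 594 nm as strands separate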
Chain of Uracil-DNA glycosylase (Homo sapiens) (P13051 whole entry): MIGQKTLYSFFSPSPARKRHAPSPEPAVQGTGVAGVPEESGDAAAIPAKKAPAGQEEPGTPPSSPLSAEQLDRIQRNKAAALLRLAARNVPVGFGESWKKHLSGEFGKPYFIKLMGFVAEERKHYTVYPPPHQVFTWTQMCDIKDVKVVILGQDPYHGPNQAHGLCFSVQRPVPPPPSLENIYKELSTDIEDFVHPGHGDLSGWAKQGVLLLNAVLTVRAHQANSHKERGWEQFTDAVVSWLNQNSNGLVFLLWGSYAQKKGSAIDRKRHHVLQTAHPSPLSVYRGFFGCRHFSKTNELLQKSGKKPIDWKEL
Description: Inhibition of UNG by quantifying inhibition of UNG-mediated cleavage and dissociation of quenched duplex DNA oligonucleotides, measured as fluorescence at 594 nm. To generate a functional strand incision and increase turn-over this assay is coupled to APE1.

[8] = target: Endonuclease 8-like 1 (Homo sapiens) (UniProt Q96FI4); settings: Compound Concentration 1.0 uM, Hit No;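 further: fluorescence at 594 nm from quenched duplex DNA oligonucleotides released by NEIL1 cleavage and strand separation, reported as reduction of this enzyme activity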
Chain of Endonuclease 8-like 1 (Homo sapiens) (Q96FI4 whole entry): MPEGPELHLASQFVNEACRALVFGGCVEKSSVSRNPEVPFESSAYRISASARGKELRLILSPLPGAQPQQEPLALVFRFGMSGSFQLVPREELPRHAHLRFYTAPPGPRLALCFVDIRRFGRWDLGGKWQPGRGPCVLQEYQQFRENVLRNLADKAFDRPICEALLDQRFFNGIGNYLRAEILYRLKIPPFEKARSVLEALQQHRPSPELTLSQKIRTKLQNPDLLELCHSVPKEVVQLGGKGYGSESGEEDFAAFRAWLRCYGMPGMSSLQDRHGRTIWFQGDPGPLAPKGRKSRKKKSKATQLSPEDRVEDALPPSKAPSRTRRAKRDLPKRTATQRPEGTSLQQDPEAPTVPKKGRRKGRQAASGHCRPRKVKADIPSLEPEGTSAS
Description: Inhibition of NEIL1 by quantifying inhibition of NEIL1-mediated cleavage and dissociation of quenched duplex DNA oligonucleotides, measured as fluorescence at 594 nm.

Chain of Methyl-CpG-binding domain protein 4 (Homo sapiens) (O95243 whole entry, the tested form may be a part): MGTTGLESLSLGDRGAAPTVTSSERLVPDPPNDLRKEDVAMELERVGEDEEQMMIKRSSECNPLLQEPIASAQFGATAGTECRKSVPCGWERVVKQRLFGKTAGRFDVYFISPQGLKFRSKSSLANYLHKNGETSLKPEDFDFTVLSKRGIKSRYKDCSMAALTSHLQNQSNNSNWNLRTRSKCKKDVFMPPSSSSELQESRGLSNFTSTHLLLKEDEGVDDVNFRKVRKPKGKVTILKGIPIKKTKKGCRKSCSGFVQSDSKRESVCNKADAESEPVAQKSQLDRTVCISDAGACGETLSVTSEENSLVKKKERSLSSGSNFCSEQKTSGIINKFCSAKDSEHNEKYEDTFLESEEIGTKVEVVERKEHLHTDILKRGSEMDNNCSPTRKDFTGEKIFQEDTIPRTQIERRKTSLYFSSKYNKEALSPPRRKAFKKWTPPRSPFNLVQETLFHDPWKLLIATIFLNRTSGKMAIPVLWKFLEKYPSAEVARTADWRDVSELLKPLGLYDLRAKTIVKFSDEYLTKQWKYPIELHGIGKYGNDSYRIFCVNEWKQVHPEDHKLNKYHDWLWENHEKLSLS

SMILES | inhibition ([1]; Compound Concentration 10.0 uM) | inhibition ([2]; Compound Concentration 10.0 uM) | inhibition ([3]; Compound Concentration 10.0 uM) | inhibition ([4]; Compound Concentration 10.0 uM) | inhibition ([5]; Compound Concentration 10.0 uM) | inhibition ([6]; Compound Concentration 10.0 uM) | inhibition ([7]; Compound Concentration 10.0 uM) | inhibition ([1]; Compound Concentration 1.0 uM) | inhibition [8] | inhibition ([2]; Compound Concentration 1.0 uM) | inhibition ([3]; Compound Concentration 1.0 uM) | inhibition ([4]; Compound Concentration 1.0 uM) | inhibition ([6]; Compound Concentration 1.0 uM) | inhibition ([7]; Compound Concentration 1.0 uM) | inhibition ([5]; Compound Concentration 1.0 uM)
O=C(NCCS(=O)(=O)c1ccc(C(F)(F)F)cn1)c1ccc(Cl)cc1 | 55.1% | -0.63% | 13.1% | -0.41% | 1.3% | 97.2% | 0.131% |  |  |  |  |  |  |  | 
Cc1n[nH]c2ncc(C(=O)N3CCC[C@H]3c3ccc(Cl)cc3)cc12 |  |  |  |  |  |  |  | 9.29% | -3.69% | 7.06% | 8.72% | -6.69% | 31.7% | -1.69% | 
COc1cnccc1Nc1nc(-c2nn(Cc3c(F)cc(OCCO)cc3F)c3ccccc23)ncc1OC | 52.5% | -7.86% | 6.21% | 14.4% |  | 11.1% | -1.2% | 47.4% |  | 4.97% | 7.99% |  | 29.7% | 1.12% | -7.84%
CCCCCCCCCCCCC/C=C/[C@@H](O)[C@@H](N)COP(=O)([O-])OCC[N+](C)(C)C | -8.69% | -8.51% | -8.04% | 5.72% | -4.94% |  | -1% |  |  |  |  |  |  |  | 
CCCCN(CCCC)C(=O)CN1C[C@H](c2cc(OC)c3c(c2)OCO3)[C@@H](C(=O)O)[C@@H]1CC(C)(C)CCC |  |  |  |  |  |  |  | 62.3% |  | 11.2% | 14.3% | 14.6% | 54.3% | -0.907% | -9.42%
Cc1cnc(Nc2ccc(F)cc2Cl)nc1-c1c[nH]c(C(=O)N[C@H](CO)c2cccc(Cl)c2)c1 |  |  |  |  |  |  |  | -4.19% | -0.127% | -6.19% | 23.9% | -8.42% | 46.4% | 2.73% | 
C[C@H](c1ccnc(Nc2nc3ccc(-c4cc(N(C)C)ncn4)cc3[nH]2)c1)N1CCN(C(=O)CC(F)(F)F)CC1 | 37.6% | -3.92% | 11.6% | -2.48% | -5.59% | 87.4% | 1.7% |  |  |  |  |  |  |  | 
Cc1cc(C)c(S(=O)(=O)N(Cc2ccc(-c3cccc(S(C)(=O)=O)c3)cc2)Cc2ccc(C(F)(F)F)o2)c(C)c1 | 60.3% | 5.94% | 7.91% | -3.9% | -8.4% | 97.7% | -2.84% |  |  |  |  |  |  |  | 
COc1ccc2c(c1)O[C@@H](c1ccc(OC)c(OC)c1)C[C@H]2NC(=O)C1(c2ccc3c(c2)OC(F)(F)O3)CC1 | 35.4% | -7.86% | -5.34% | -6.31% | -1.51% | 25.6% | -6.88% |  |  |  |  |  |  |  | 
C[C@H](c1ccc(F)cc1)N(Cc1ccc(Cl)c(C(=O)O)c1)C(=O)c1cnc2ccccc2c1 | 52.3% | -7.86% | 16.2% | 8.39% | -8.14% | 31.5% | 1.41% |  |  |  |  |  |  |  | 
O=C1NC(c2ccccn2)Sc2ccccc21 (stereo not given) | 55.9% | -7.2% | 8.24% | -4.34% | -4.83% | 34% | -1.67% |  |  |  |  |  |  |  | 
CNC(=O)COc1cc2cc(Nc3nc(N4CCC(C(=O)N(C)C)CC4)ncc3Cl)cc(OC)c2n(C)c1=O | 50.6% | -0.63% | 3.52% | 4.56% | -6.1% | 86.8% | 0.116% |  |  |  |  |  |  |  | 
O=C(c1ccc(F)cc1)N1CC(COc2ccc(Br)cc2)(C(=O)O)C1 |  |  |  |  |  |  |  | 67.1% | -7.26% | 0.685% | 15.2% | -9.75% | 52.8% | 0.879% | 
